Source: US20250027956A1, “Improved Gamma-Secretase Inhibitor Screening Assays” (VIB VZW, priority 2021, published 2025)

Experiments:
WT MEFs [1] = assay: Lysosomal Ca2+ content, Fura-2AM loaded cells challenged with GPN, WT cells; type: cell-based, mouse; settings: normalized to DMSO
Description: (§1) Cells were treated with the following drugs, usually for 4 days, unless otherwise stated: DAPT (2634/10, Tocris) 1 μM final; Inhibitor X (565771-250 μg, Calbiochem/Merck) 1 μM final; β-Secretase Inhibitor IV (565788, Calbiochem/Merck) 2 μM final, (2-Hydroxypropyl)-γ-cyclodextrin (H125-5G-I, Sigma Aldrich) 1 mM final; Adam 10 inhibitor G1254023X (SML0789, Sigma Aldrich) 3 μM final. For OSW-1 (30310-1, Sanbio/Cayman Chemical), cells were treated overnight with 10 nM. Diluent treatment alone (in most cases DMSO, water for the cyclodextrin) was used as vehicle control.
Cytosolic response: Ca2+ responses were measured as previously described in Coen et al 2012. Briefly, cells (0.005 to 0.01×106) were seeded two to three days prior to the experiment on glass coverslips (631-0153, VWR). On the day of recording, cells were rinsed three times in Ringer solution (155 mM NaCl, 5 mM KCl, 2 mM MgCl2, 2 mM CaCl2, 10 mM Glucose, 10 mM HEPES, 2 mM NaH2PO4·2H20; pH 7.3), and loaded 1 μM Fura2-AM (F1221, ThermoFisher Scientific) for 30 min (RT). Cells were rinsed three times and left to equilibrate for at least 15-20 min (RT). All acquisitions were carried out in Ringer Ca2+ free solution (same as above, albeit the 2 mM CaCl2 were replaced by 2 mM EGTA). During experiments, cells were challenged with different drugs, such as Thapsigargin (T7459, ThermoFisher Scientific, 1 μM final), GPN (ab145914, abcam, 100 μM final for MEFs, 500 μM for neurons), MLSA1 (Cat. No. 4746, Tocris, 20 μM final) or lonomycin (10634, Sigma Aldrich, 1 μM final). Images were acquired every 5 sec for 8-10 min, using an Olympus IX81 using an UAPO/340 40× oil objective (1.35 NA), operated by CellR Software (Olympus). Recordings were done using 340 and 380 nm excitation, and 530 nm emission filters. Image processing was performed using Image J Software (Schindelin et al 2012; Schneider et al 2012). Briefly, cells were segmented manually and fluorescence intensities were measured over time. Fura-2 signals were corrected to obtain ΔF/F0 (F0 being the initial signal recorded). For each cell, the area under the curve, corresponding to the aforementioned stimulation, was measured using GraphPad Prism.

WT MEFs [2] = assay: Immunoblot of APP-CTFs in drug-treated WT MEFs; type: cell-based, mouse; settings: 1 μM for 1-4 days, vs DMSO
Description: as §1
Whole cell extracts were prepared starting from lysed cultured cells (80% confluency). Protein concentration was determined using the Bio-Rad DC protein assay (Bio-Rad). These extracts were run on 4-12% Bis-Tris Bolt or NuPAGE precast gels in MES/MOPS running buffer (Invitrogen), followed by transfer on nitrocellulose membranes (Life Technologies). Of note, for APP-CTFs characterization, samples were run on 16% tricine gels (Life Technologies) in the appropriate running buffer (LC1675, Life Technologies). Membranes were blocked with 5% non-fat milk (1 h, RT), incubated with primary antibodies (overnight, 4° C.), rinsed and incubated with HRP-conjugated secondary antibodies (1 h, RT). […]

APPKO cells = assay: Lysosomal Ca2+ content, Fura-2AM loaded cells challenged with GPN, APPKO cells; type: cell-based, mouse; settings: 1 μM, 4 days, normalized to DMSO
Excerpt: Diluent treatment alone (in most cases DMSO, water for the cyclodextrin) was used as vehicle control.
Briefly, the web-based CRISPR design tool was used to select the sequence to be targeted in mouse PSEN1 and PSEN2 (i.e. 5′-[…]-3′ and 5′-[…]-3′, respectively). Oligo pairs encoding guide sequences (obtained from Integrated DNA Technologies, IDT) were annealed and ligated into the pX330 plasmid (Addgene) according to the Zhang's laboratory protocol (https://www.addgene.org/crispr/zhang/). MEF cells were then transfected with the pX330-PSEN1 and PX330-PSEN2, using Fugene HD (Promega), in accordance with the manufacturer protocol. Selection of PSENdKO clones was achieved through serial dilution and confirmed by WB analysis. Further depletion of APP in different PSENdKO clones was achieved through electroporation of RNP complexes. […]
Cells were rinsed three times and left to equilibrate for at least 15-20 min (RT). […] Briefly, cells were segmented manually and fluorescence intensities were measured over time. Fura-2 signals were corrected to obtain ΔF/F0 (F0 being the initial signal recorded). For each cell, the area under the curve, corresponding to the aforementioned stimulation, was measured using GraphPad Prism.

WT MEFs [3] = assay: Confocal immunofluorescence (compartment size, Mander's colocalization, filipin) in WT MEFs; type: cell-based, mouse
Description: as §1
Immunofluorescence: Cells were fixed (4% paraformaldehyde (PFA)/4% sucrose in PBS free of Ca2+ and Mg2+ (PBS−/−) 20 min, RT), permeabilized (0.1% triton X-100 in PBS−/−; 10 min, RT), and blocked (2% BSA, 2% FBS, 1% gelatin, and depending of the experiment 2% of goat or donkey serum (Bioké or Sigma), 1 h RT). Primary antibodies diluted in the same blocking buffer were incubated overnight at 4° C. Following PBS washing steps, (goat- or donkey-) secondary antibodies conjugated with Alexa fluor dyes (Alexa 488, 568, or 647, all ThermoFisher Scientific) diluted in the blocking buffer were incubated for 1 h, RT. Coverslips were then mounted with Mowiol (Sigma). When cholesterol labelling was performed, fixed cells were treated with 200 μg·ml−1 filipin (F4767, Sigma) for 2 h at RT, prior to permeabilization.
Acquisition: Z stack images (spacing 2 μm), or a median plan were acquired on a Nikon 1AR connected to an inverse Nikon Ti-2000 equipped with an oil-immersion plan APO 60× objective lenses with 1.40 NA. Data were collected using Nikon Imaging Software.
Image analysis: All image analysis was done using Image J software (Schindelin et al 2012; Schneider et al 2012). To measure the area of the organelle of interest (early endosomes-EEA1; lysosomes-Lamp1; retromer-VPS35 . . . ), segmentation was realized using automatic thresholding. The following masks were used: Mean (EEA1), Ostu (Lamp1), Intermodes (VPS35). Overlap of signal of interests were quantified with Manders colocalisation index (Plugin Jacob, (Bolte and Cordelieres 2006)). When indicated, co-localization data was normalized to the reference group for multiple comparisons.

[4] = system: cultured skin fibroblasts of NPC patients; settings: cited from earlier work
[5] = system: NPC1−/− neural stem cells; settings: cited from earlier work
lysosomal exocytosis = settings: cited from earlier work

C[C@H](NC(=O)Cc1cc(F)cc(F)c1)C(=O)N[C@H](C(=O)OC(C)(C)C)c1ccccc1 [DAPT]
lysosomal Ca2+ content (WT MEFs [1]; 1 μM for 1-4 days, 100 μM GPN): significantly reduced lysosomal Ca2+ content | lysosomal Ca2+ content (WT MEFs [1]; WT cells, 1 μM, 4 days): reduced | APP-CTFs level (immunoblot) (WT MEFs [2]): rapidly accumulated APP-CTFs | Lysosomal Ca2+ content (GPN-elicited Ca2+ response) (APPKO cells): did not affect the GPN-elicited Ca2+ response | early endosomes (EEA1) size (WT MEFs [3]; 1 μM for 1-4 days): significantly enlarged only after 4 days of treatment | APP-CTF accumulation in LAMP1-positive LE/Lys (Mander's colocalization APP-Lamp1) (WT MEFs [3]; 1 μM for 1-4 days, vs DMSO): increasing APP-CTF accumulation | cholesterol accumulation in LE/Lys (Filipin-Lamp1 colocalization) (WT MEFs [3]; 1 μM for 1-4 days, vs DMSO): only significantly from day 2 | colocalization of VPS35 and EEA1 with Lamp1 (WT MEFs [3]; 1 μM for 1-4 days, from day 3 onward): increased colocalization of VPS35 and EEA1 with Lamp1 | VPS35-positive organelles (size) (WT MEFs [3]; 1 μM, following 3 days of treatment): found to be increased

O=C(CCCCCCC(=O)Nc1ccccc1)NO [Vorinostat, suberanilohydroxamic acid]
accumulation of lipids in the lysosomes [4]: reduces the accumulation of lipids in the lysosomes

CCCC(CCC)C(=O)O [Valproic acid]
benefit in NPC1−/− neural stem cells [5]: some benefit

O=c1c(-c2ccc(O)cc2)coc2cc(O)cc(O)c12 [Genistein]
lysosomal exocytosis and cholesterol accumulation (lysosomal exocytosis): increase lysosomal exocytosis with a decrease in cholesterol accumulation
